Converted amounts (≈) assume the structure as drawn.
Columns and labels:
[1] = test system: Mycobacterium tuberculosis; test: Antimycobacterial activity against Mycobacterium tuberculosis HN878 assessed as inhibition of mycobacterial growth incubated for 5 days; format: functional; details: HN878, 120 h, time 5 day
Aspergillus flavus = test: Antifungal activity against Aspergillus flavus assessed as inhibition of fungal growth; format: functional, organism-based
[Candida] auris = Antifungal activity against Candida auris assessed as inhibition of fungal growth; format: functional, organism-based; details: Candidozyma auris
Fusarium oxysporum = test: Antifungal activity against Fusarium oxysporum assessed as inhibition of fungal growth; format: functional, organism-based
Candida albicans = test: Antifungal activity against Candida albicans assessed as inhibition of fungal growth; format: functional, organism-based
Rhizopus arrhizus = test: Antifungal activity against Rhizopus arrhizus assessed as fungal growth inhibition; format: functional, organism-based
Aspergillus fumigatus = test: Antifungal activity against Aspergillus fumigatus ATCC 13073 strain assessed as […] growth inhibition; format: functional, organism-based
Cryptococcus neoformans = test: […] activity against Cryptococcus neoformans assessed as inhibition of […]; format: functional, organism-based
Nakaseomyces glabratus [2] = test: Antifungal activity against Candida glabrata MTCC 3019 assessed as inhibition of fungal growth incubated for 24 hrs by agar well diffusion method; format: functional, organism-based; details: MTCC 3019, 24 h
Nakaseomyces glabratus [3] = test: Antifungal activity against Candida glabrata ATCC 90030 assessed as inhibition of microbial growth incubated for 24 hrs by broth microdilution method; format: functional, organism-based; details: ATCC 90030, 24 h

Cn1cc(NC(=O)c2cc(NC(=O)c3ccc(/C=C/c4ccc(C(F)(F)F)cc4)cc3)cn2C)cc1C(=O)NCCC(=N)N
MIC99 [1]: 1.56 µM (≈ 0.945 µg/mL)

CN(C)c1ccc(/C=C/c2ccc(C(=O)Nc3cc(C(=O)Nc4cc(C(=O)NCCC(=N)N)n(C)c4)n(C)c3)cn2)cc1
IC50 (Aspergillus flavus): 0.8 µg/mL (≈ 1.38 µM) | IC50 ([Candida] auris): 0.8 µg/mL (≈ 1.38 µM) | IC50 (Fusarium oxysporum): 0.8 µg/mL (≈ 1.38 µM) | IC50 (Candida albicans): 0.8 µg/mL (≈ 1.38 µM) | IC50 (Rhizopus arrhizus): 0.8 µg/mL (≈ 1.38 µM) | IC50 (Aspergillus fumigatus): 0.8 µg/mL (≈ 1.38 µM) | IC50 (Cryptococcus neoformans): 0.8 µg/mL (≈ 1.38 µM) | IC50 (Nakaseomyces glabratus [2]): 0.8 µg/mL (≈ 1.38 µM) | IC50 (Nakaseomyces glabratus [3]): 0.8 µg/mL

— ChEMBL document CHEMBL5376023, “The allure of targets for novel drugs” (RSC Med Chem, 2024)
